The target in data set [1] is T1, rCsHK (recombinant Clonorchis sinensis hexokinase, CsHK) (Clonorchis sinensis, UniProt G7YJ23).
T1 construct: gene CLF_109217; homotrimer about 164 kDa
T1 sequence (G7YJ23 1-449): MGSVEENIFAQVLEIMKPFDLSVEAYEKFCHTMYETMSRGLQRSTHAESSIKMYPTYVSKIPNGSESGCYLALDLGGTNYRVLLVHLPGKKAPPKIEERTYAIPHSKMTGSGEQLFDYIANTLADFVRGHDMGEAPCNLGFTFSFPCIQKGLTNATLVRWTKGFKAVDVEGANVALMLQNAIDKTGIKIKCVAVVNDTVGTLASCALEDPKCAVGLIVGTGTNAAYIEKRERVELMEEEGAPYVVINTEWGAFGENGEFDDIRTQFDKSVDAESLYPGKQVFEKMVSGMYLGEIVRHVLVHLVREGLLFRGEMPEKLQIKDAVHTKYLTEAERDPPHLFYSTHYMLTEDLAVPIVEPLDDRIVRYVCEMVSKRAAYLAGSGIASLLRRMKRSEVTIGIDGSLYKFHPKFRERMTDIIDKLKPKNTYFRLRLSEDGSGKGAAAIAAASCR
Kind of data set: coupled pyruvate kinase / lactate dehydrogenase ADP assay at […] nm. It counts as biochemical. As to conditions: 0-4 mM G6P; with respect to ATP or glucose; allosteric inhibitor, dose-independent; also product.

Data set [2] addresses T1, rCsHK (recombinant Clonorchis sinensis hexokinase, CsHK). The experiment in a line: G6PD-coupled NADPH assay at […] nm. The class given is biochemical. The settings on record: read-out: relative enzymatic activity at 4 mM.
Data set [3] shares this target. Kind of data set: G6PD-coupled NADPH assay at […] nm. It counts as biochemical. As to conditions: 3 mM glucose, with respect to ATP.
Substrate in data set [4]: Nc1ncnc2c1ncn2[C@@H]1O[C@H](COP(=O)(O)OP(=O)(O)OP(=O)(O)O)[C@@H](O)[C@H]1O
Kind of data set: purified protein. The settings on record: 3 mM glucose, 15 mM MgCl2, 100 mM Tris-Cl pH 8.5, 37 °C, sigmoidal, Mg-ATP true substrate. The class given is biochemical, Clonorchis sinensis.

`O=P(O)(O)OC[C@H]1OC(O)[C@H](O)[C@@H](O)[C@@H]1O` (some centres unmarked) [glucose-6-phosphate]: the “coupled pyruvate kinase / lactate dehydrogenase ADP assay at 340 nm” value in data set [1] is listed as “Different concentrations G6P displayed the net allosteric inhibition of rCsHK”.

Take `O=C(C1CCCCC1)N1CC(=O)N2CCc3ccccc3C2C1` (centres unmarked) [praziquantel]: in data set [2], the activity at 4000 µM is 45%.

For the molecule `O=P(O)(O)OP(=O)(O)O` [inorganic pyrophosphate], in data set [3] (0-3 mM PPi, allosteric activator, not a substrate), the “G6PD-coupled NADPH assay at 340 nm” value is reported as “Different concentrations of PPi displayed a net allosteric activation of rCsHK with respect to ATP”.

Regarding `Nc1ncnc2c1ncn2[C@@H]1O[C@H](COP(=O)(O)OP(=O)(O)O)[C@@H](O)[C@H]1O` [ADP], the “G6PD-coupled NADPH assay at 340 nm” value in data set [3] (0-3 mM ADP, mixed allosteric effector, also product) is given as “ADP, which is a product of HK, exhibited an unusual mixed allosteric effect on CsHK”.

B1: rCsHK (recombinant Clonorchis sinensis hexokinase, CsHK) (Clonorchis sinensis) (protein)
chain: MGSVEENIFAQVLEIMKPFDLSVEAYEKFCHTMYETMSRGLQRSTHAESSIKMYPTYVSKIPNGSESGCYLALDLGGTNYRVLLVHLPGKKAPPKIEERTYAIPHSKMTGSGEQLFDYIANTLADFVRGHDMGEAPCNLGFTFSFPCIQKGLTNATLVRWTKGFKAVDVEGANVALMLQNAIDKTGIKIKCVAVVNDTVGTLASCALEDPKCAVGLIVGTGTNAAYIEKRERVELMEEEGAPYVVINTEWGAFGENGEFDDIRTQFDKSVDAESLYPGKQVFEKMVSGMYLGEIVRHVLVHLVREGLLFRGEMPEKLQIKDAVHTKYLTEAERDPPHLFYSTHYMLTEDLAVPIVEPLDDRIVRYVCEMVSKRAAYLAGSGIASLLRRMKRSEVTIGIDGSLYKFHPKFRERMTDIIDKLKPKNTYFRLRLSEDGSGKGAAAIAAASCR
notes: homotrimer about 164 kDa
Take B1: the K0.5 in data set [4] amounted to 0.459 ± 0.007 mM.

Source of the values: publication PMC4169440, “Sequence Analysis and Molecular Characterization of Clonorchis sinensis Hexokinase, an Unusual Trimeric 50-kDa Glucose-6-Phosphate-Sensitive Allosteric Enzyme” (PLoS ONE, 2014).
